Measured values from ChEMBL document CHEMBL5465560, “Selectivity Literature for EUbOPEN Chemogenomic Library” (2024).

Experiments:
[1] = biological target: Glycogen synthase kinase-3 alpha (Homo sapiens, UniProt P49840); test: Selectivity interaction (Eurofins kinase panel) EUB0000008b GSK3A; settings: at 1 µM
[2] = biological target: T1, Homeodomain-interacting protein kinase 2 (Homo sapiens, UniProt Q9H2X6); test: Selectivity interaction (Eurofins kinase panel) EUB0000008b HIPK2; settings: at 1 µM
Target sequence in this assay (Q9H2X6 whole entry, looked up): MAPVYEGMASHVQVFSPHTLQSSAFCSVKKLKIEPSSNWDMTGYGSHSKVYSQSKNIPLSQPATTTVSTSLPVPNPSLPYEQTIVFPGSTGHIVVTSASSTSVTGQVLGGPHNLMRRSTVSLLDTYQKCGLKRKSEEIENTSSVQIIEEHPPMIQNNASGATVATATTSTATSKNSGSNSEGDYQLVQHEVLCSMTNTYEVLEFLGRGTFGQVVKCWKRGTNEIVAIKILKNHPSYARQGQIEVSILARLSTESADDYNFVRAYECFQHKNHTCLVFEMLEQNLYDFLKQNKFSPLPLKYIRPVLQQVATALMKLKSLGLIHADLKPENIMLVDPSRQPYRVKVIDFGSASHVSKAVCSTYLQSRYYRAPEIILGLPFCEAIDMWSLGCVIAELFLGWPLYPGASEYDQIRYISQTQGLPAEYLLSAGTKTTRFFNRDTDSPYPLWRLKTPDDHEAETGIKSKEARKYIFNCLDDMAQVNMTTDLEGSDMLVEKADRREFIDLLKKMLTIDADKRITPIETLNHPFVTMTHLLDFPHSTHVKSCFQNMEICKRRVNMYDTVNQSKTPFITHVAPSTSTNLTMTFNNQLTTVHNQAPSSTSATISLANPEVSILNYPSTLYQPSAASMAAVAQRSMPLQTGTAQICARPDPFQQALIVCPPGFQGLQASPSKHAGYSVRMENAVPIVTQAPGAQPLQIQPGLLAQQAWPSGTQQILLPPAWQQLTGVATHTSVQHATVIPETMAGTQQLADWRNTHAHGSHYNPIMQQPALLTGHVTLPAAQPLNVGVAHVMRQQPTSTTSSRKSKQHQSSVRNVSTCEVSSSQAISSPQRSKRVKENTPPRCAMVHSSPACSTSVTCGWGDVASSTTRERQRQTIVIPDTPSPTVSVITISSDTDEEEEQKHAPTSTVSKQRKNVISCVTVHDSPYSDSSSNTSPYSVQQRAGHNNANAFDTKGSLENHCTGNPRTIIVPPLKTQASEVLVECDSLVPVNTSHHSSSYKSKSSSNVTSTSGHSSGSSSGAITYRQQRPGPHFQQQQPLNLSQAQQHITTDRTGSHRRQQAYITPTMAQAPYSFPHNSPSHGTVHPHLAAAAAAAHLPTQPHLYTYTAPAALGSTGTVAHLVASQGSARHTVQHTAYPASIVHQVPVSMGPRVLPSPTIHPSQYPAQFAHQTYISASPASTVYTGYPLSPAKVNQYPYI

[3] = biological target: T1, Homeodomain-interacting protein kinase 2; test: Selectivity interaction (Eurofins binding assay) EUB0000008b HIPK2
Target sequence in this assay (Q9H2X6 whole entry): as the sequence (Q9H2X6 whole entry, looked up) above

[4] = biological target: T1, Homeodomain-interacting protein kinase 2; test: Selectivity interaction (NanoBRET assay (using HEK293T cells)) EUB0000008b HIPK2; type: cell-based, HEK-293T
Target sequence in this assay (Q9H2X6 whole entry): as the sequence (Q9H2X6 whole entry, looked up) above

[5] = biological target: Homeodomain-interacting protein kinase 3 (Homo sapiens, UniProt Q9H422); test: Selectivity interaction (Eurofins kinase panel) EUB0000008b HIPK3; settings: at 1 µM
Chain of Homeodomain-interacting protein kinase 3 (Q9H422 whole entry, looked up): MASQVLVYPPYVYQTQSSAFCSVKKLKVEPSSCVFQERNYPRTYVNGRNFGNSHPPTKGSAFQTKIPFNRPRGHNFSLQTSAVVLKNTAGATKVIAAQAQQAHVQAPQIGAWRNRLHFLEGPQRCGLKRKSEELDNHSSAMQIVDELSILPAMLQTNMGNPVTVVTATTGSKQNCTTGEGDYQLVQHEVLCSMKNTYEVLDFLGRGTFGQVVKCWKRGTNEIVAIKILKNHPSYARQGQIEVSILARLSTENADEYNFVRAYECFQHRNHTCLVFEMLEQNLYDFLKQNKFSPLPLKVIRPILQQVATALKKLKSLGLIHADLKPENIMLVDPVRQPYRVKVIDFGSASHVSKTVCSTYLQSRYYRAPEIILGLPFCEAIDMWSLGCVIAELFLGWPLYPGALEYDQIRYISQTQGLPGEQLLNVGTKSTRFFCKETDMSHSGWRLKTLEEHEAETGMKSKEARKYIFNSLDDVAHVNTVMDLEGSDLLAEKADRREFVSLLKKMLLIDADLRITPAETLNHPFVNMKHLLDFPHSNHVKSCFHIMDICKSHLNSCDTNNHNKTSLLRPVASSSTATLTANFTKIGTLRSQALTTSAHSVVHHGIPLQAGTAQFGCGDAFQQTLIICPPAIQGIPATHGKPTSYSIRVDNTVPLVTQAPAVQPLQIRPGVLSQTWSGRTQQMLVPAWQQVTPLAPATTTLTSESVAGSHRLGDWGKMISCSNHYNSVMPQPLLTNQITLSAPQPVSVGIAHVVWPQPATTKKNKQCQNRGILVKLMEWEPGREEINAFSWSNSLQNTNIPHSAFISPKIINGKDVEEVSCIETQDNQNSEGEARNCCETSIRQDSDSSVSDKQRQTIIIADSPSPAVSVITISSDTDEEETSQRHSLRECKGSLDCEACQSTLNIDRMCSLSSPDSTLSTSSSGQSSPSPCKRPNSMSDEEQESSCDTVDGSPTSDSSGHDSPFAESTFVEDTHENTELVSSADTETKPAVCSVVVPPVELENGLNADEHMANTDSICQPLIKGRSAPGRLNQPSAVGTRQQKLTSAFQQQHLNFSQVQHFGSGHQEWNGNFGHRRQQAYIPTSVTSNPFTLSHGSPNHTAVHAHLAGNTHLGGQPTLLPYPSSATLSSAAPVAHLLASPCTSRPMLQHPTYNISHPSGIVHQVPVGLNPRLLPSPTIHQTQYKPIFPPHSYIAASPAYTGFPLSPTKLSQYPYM

[6] = biological target: Homeodomain-interacting protein kinase 4 (Homo sapiens, UniProt Q8NE63); test: Selectivity interaction (NanoBRET assay (using HEK293T cells)) EUB0000008b HIPK4; type: cell-based, HEK-293T
Chain of Homeodomain-interacting protein kinase 4 (Q8NE63 whole entry): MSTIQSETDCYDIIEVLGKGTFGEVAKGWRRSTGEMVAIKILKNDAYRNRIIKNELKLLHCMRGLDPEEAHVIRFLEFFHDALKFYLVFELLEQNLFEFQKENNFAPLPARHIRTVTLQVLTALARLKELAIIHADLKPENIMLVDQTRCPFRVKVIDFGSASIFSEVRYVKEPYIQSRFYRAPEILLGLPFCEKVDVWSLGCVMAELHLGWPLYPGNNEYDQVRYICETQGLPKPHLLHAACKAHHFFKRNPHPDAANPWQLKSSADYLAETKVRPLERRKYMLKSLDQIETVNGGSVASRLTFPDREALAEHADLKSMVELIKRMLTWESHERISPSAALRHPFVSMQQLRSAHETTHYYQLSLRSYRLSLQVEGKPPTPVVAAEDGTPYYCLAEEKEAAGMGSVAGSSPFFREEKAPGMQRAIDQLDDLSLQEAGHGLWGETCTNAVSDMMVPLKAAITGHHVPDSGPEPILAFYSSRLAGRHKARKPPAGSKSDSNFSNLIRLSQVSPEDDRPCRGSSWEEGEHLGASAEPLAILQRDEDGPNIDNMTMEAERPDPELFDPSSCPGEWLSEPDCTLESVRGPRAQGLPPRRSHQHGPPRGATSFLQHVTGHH

[7] = biological target: Microtubule-associated serine/threonine-protein kinase 1 (Homo sapiens) (UniProt Q9Y2H9); test: Selectivity interaction (KinomeScan (DiscoverX)) EUB0001877a MAST1; settings: at 1 µM
Chain of Microtubule-associated serine/threonine-protein kinase 1 (Homo sapiens) (Q9Y2H9 whole entry, looked up): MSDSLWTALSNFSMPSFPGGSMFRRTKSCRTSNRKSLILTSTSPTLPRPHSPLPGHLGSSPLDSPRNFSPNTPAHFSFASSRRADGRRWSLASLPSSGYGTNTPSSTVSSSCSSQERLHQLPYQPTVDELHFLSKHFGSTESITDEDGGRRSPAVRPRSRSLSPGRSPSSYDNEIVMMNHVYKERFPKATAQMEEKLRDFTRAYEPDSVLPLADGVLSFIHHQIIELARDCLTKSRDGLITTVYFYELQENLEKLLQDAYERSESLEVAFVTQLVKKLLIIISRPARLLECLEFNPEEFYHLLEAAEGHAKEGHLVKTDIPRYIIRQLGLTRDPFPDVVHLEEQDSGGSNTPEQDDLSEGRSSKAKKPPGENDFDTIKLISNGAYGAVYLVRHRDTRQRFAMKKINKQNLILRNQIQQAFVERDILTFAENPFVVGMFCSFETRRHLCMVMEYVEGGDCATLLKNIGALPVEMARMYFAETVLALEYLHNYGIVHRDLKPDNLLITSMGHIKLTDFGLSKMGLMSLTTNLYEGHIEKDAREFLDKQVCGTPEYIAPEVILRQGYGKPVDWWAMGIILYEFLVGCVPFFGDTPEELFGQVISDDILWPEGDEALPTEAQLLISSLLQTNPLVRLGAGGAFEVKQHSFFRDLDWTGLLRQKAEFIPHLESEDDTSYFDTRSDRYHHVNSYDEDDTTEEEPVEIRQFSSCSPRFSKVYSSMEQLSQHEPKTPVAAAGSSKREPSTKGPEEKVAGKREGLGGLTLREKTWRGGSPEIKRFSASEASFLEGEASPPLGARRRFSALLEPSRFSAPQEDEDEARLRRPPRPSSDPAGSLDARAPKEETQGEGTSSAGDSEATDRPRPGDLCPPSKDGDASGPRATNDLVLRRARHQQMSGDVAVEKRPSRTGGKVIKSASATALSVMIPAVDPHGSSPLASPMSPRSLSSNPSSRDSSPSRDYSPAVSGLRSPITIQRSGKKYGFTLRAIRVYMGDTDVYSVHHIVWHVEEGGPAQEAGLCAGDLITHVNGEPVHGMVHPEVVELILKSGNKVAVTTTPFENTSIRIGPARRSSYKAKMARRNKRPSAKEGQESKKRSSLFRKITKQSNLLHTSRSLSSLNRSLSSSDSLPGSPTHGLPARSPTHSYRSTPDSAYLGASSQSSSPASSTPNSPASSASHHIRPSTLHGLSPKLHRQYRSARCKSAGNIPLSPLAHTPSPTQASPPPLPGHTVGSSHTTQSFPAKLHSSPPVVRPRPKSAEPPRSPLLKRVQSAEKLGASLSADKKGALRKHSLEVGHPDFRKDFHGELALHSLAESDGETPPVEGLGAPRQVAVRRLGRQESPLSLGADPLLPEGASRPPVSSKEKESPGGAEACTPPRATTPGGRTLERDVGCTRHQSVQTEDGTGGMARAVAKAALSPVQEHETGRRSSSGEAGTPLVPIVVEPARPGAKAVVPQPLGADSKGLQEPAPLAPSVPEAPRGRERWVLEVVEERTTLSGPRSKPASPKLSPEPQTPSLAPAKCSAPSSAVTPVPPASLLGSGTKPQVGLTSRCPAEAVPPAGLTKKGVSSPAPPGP

`Cn1cc(-c2ccc3occ(-c4cccc(-c5ccncc5)c4)c3n2)cn1` gave a % of activity [1] of 90%, a % of activity [2] of 99% and an IC50 [3] of 0.023 µM. For the same compound, the IC50 [4] was over 10 µM, the % of activity [5] was 94% and the IC50 [6] was 5.41 µM.

In the case of `Nc1ncc2c(n1)-c1c([nH]c3ccc(C4CC4)cc13)CCCC2`, the % of control [7] is reported as 32%.
